Source: PubChem BioAssay (NCI)
Where “and” joins values, the source holds several entries; their conditions need not be identical. Identical values can stand only once.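 96-well plates; 48 h exposure; 5 concentrations. Endpoints by linear interpolation between flanking doses. Not reached: highest tested concentration assigned. GI50 = concentration required for 50% inhibition of growth. TGI is the concentration that stops growth completely.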

Experiments:
Test in all cases: NCI tumour cell line growth inhibition, 48 h
ACHN renal = test system: ACHN renal
BT-549 breast = test system: BT-549 breast
COLO 205 colon = test system: COLO 205 colon
HOP-62 NSCLC = test system: HOP-62 NSCLC
HOP-92 NSCLC = test system: HOP-92 NSCLC
MDA-MB-435 = test system: MDA-MB-435
NCI-H23 lung = test system: NCI-H23 lung
PC-3 prostate = test system: PC-3 prostate
TK-10 renal = test system: TK-10 renal
U251 CNS = test system: U251 CNS

SMILES	GI50 (ACHN renal)	TGI (ACHN renal)	GI50 (BT-549 breast) [µM]	TGI (BT-549 breast) [µM]	GI50 (COLO 205 colon)	TGI (COLO 205 colon) [µM]	GI50 (HOP-62 NSCLC) [µM]	TGI (HOP-62 NSCLC) [µM]	GI50 (HOP-92 NSCLC)	TGI (HOP-92 NSCLC)	GI50 (MDA-MB-435) [µM]	TGI (MDA-MB-435) [µM]	GI50 (NCI-H23 lung)	TGI (NCI-H23 lung)	GI50 (PC-3 prostate) [µM]	TGI (PC-3 prostate) [µM]	GI50 (TK-10 renal)	TGI (TK-10 renal) [µM]	GI50 (U251 CNS)	TGI (U251 CNS)
CCN(CC)CCN1CC(O)=C(c2nc(-c3ccc(Cl)cc3)cs2)C1=N	3.14 µM	12 µM	5.17	21.2	2.04 µM	4	1.83	3.99	1.49 µM	8.65 µM	1.72	3.25	7.39 µM	49.9 µM	6.8	> 100	2.86 µM	5.65	1.68 µM	3.17 µM
COc1ccc2c(c1)C=C([N+](=O)[O-])C(C1OC(C)(C)OC1C1COC(C)(C)O1)O2 (stereo unspecified)		6.53 µM		12.6		30		37.4		37.8 µM		14.8		24.2 µM				32.4		9.83 µM
CN(C)CCNC(=O)c1cccc(C(=O)Nc2ccccc2)c1[N+](=O)[O-]		> 100 µM		> 100		> 100		> 100				> 100		> 100 µM		> 100		> 100		> 100 µM
O=C(CCl)Nc1ccc(Cl)cc1	3.13 µM	10.6 µM	2.78	9.92	1.98 µM	3.61	2.01	3.91	6.67 µM	20.7 µM	4.4	20.4	3.29 µM	14.3 µM	7.36	23.7	2.3 µM	5.75	2.22 µM	5.26 µM
COc1cc[nH]c1/C=C1\C(=O)Nc2ccccc21	3.5 µM	> 25 µM	7.98	> 25	14.1 µM	> 25	> 19.3	> 25	4.34 µM	> 21 µM	9.01	> 25	7.7 µM	> 25 µM	8.78	> 25	6.71 µM	> 25	4.17 µM	> 25 µM
COc1ccc(C(=O)c2cc(C)c(OC)c(C)c2)c(OC)c1N(C(=O)C(Cl)Cl)C(=O)C(Cl)Cl	0.0699 µM	> 100 µM	0.0607	2.75	0.156 µM	4.14	0.0666	> 100	0.407 µM	> 94 µM	0.021	0.0625	0.0909 µM	> 100 µM	0.0436	> 100	> 79.8 µM	> 100	0.0553 µM	> 100 µM
Cc1cc(SCC(=O)c2ccccc2)nc2ccccc12		> 100 µM		> 100		> 100		> 100		> 100 µM		> 100		> 100 µM		> 100		> 100		> 100 µM
COc1ccc(OC)c(/C=C/C(=O)N/N=C/c2ccc(Cl)cc2)c1	1.61 µM	> 100 µM	1.17	> 100	0.0935 µM	0.599	0.102	> 70.9	9.27 µM	75.2 µM	0.0263	0.106	0.105 µM		0.105	> 100	0.383 µM	> 100	0.184 µM	1.49 µM
O=C1c2ccccc2-c2c1c1ccccc1c(=O)n2Cc1ccccc1				> 100		> 100		> 100		> 100 µM		> 100		> 100 µM		> 100		> 100		> 100 µM
COC(=O)c1cccc2cccc(C(=O)Nc3ccc(C)cc3C)c12		> 100 µM				> 100		> 100		> 100 µM				> 100 µM				> 100		> 100 µM
Cn1cc(C(=O)c2ccccc2)ccc1=O		> 100 µM				> 100		> 100		> 100 µM				> 100 µM				> 100		> 100 µM
COc1cc(OC(=O)c2c(O)cc(O)c(O)c2C)cc(C)c1C(=O)Oc1cc(C)c(C(=O)O)c(O)c1		> 100 µM				> 100		> 100		> 100 µM				> 100 µM				> 100		> 100 µM
CC1=C2C(=O)O[C@@H](c3ccoc3)[C@]2(C)CCC1		> 100 µM				> 100		> 100		> 100 µM				> 100 µM				> 100		> 100 µM
CC(=O)OC[C@]12CC[C@H]3[C@@H](C[C@H]4O[C@]45[C@@H](O)C=CC(=O)[C@]35C)[C@@H]1CC[C@@H]2[C@H](C)[C@H]1CC(C)=C(C)C(=O)O1	0.498 µM and 0.515 µM	0.792 µM and 1.16 µM			0.348 µM and 0.31 µM	0.91	1.51	3.52	0.22 µM and 0.189 µM	0.722 µM and 1.27 µM			0.185 µM and 0.324 µM	0.371 µM and 0.858 µM			0.548 µM and 0.68 µM	1.82	0.688 µM and 0.742 µM	0.91 µM and 1.95 µM
Cc1ccc2nc3c(C(=O)NCCN(C)C)cccc3nc2c1		14.9 µM				> 22.4		14		> 22.4 µM				17.1 µM				> 66		24.3 µM
Fc1cc(F)c(COc2cc(Cn3cnc4c(Cl)nc(Cl)nc43)ccc2C23CC4CC(CC(C4)C2)C3)cc1F	17.1 µM	30.8 µM	11	24.5	17.8 µM	39.1	17.4	31.2	17.6 µM	32.1 µM	17.3	33			19.3	33.8	17.1 µM	31.1	16.8 µM	30.4 µM
NC(=S)N/N=C/c1ccc(OC(=O)COc2ccc(Cl)cc2)cn1	3.39 µM	> 100 µM	4.74	> 100	31.8 µM	> 100	14.6	91.1			5.89	> 100	3.67 µM	> 100 µM	4.67	> 100	30 µM	> 100	4.24 µM	> 100 µM
CCS(=O)(=O)c1ccc(OC)c(Nc2ncc(-c3cccc(C(C)=O)c3)o2)c1	11.4 µM	> 25 µM	20.4	> 25	> 25 µM	> 25	> 25	> 25			> 25	> 25	> 25 µM	> 25 µM	> 25	> 25	> 25 µM	> 25	19.7 µM	> 25 µM
COC(=O)C(=O)C(C(=O)C(=O)Nc1ccccc1C(N)=O)c1nc2ccc(Cl)cc2[nH]c1=O (stereo unspecified)		> 100 µM		> 100		> 100				> 100 µM		> 100		> 100 µM		> 100				> 100 µM
CCCCCCCCCCCCCC1CCC(CC)N1 (stereo unspecified)		17.4 µM				28.9		17.9		31.3 µM				32.9 µM				32		18 µM
CCC[CH2][Sn]1([CH2]CCC)[O]C(=O)C(C(C)C)N=Cc2ccccc2[O]1 (stereo unspecified)	0.274 µM	0.882 µM			0.213 µM	0.693	3.79	> 100	0.131 µM	0.442 µM			0.158 µM	0.534 µM			0.272 µM	0.73	0.228 µM	0.636 µM
COc1c2c(cc3nc4ccccc4nc13)CCC(C(C)(C)O)C2 (stereo unspecified)		> 100 µM				> 100		> 100		> 100 µM				> 100 µM				> 100		> 100 µM
N#Cc1nc(C2OC(COC(=O)c3ccccc3)C(OC(=O)c3ccccc3)C2OC(=O)c2ccccc2)oc1N (stereo unspecified)		> 100 µM				> 100		> 100		> 100 µM				> 100 µM				> 100		> 100 µM
Cc1cn2c(/C=C3/C(=O)N(C)c4ccccc43)c(C)nc2s1	25.9 µM	> 100 µM	10.8	> 100	3.93 µM	21	30	> 100	31.9 µM	> 100 µM			16.2 µM	> 100 µM	16.5	> 100	21.5 µM	> 100	8.08 µM	> 100 µM
NC(N)=NCCCn1c2c(c3ccccc3c1=O)C(=O)c1ccccc1-2	18 µM	35.2 µM	2.28	5.51	21.2 µM	79.7	0.695	3.64	3.2 µM	47.5 µM	25.9	71.5			52.1	> 100	29.5 µM	98.3	0.223 µM	0.637 µM
CCOC(=O)Sc1ncnc2nc[nH]c12	4.65 µM	> 100 µM	9.92	> 100	3.92 µM	46.4	0.808	> 100			1.47	> 100	3.93 µM	> 100 µM	4.07	> 100	0.547 µM	> 100	12.9 µM	> 100 µM
